Laboratory results taken from publication PMC8968748 (Journal of medicinal chemistry, 2021).
In brackets after ≈: the same amount, converted by molar mass.

Legend:
[1] = test system: IDH1(R132H)-86b; assay: SplitLuc CETSA target engagement in HEK293T cells; type: cell-based; details: relative to 119
[2] = Mouse pharmacokinetic study; type: in vivo
[3] = test system: U87 mIDH1 (R132H) xenograft; assay: PK/PD in U87 R132H mIDH1 xenograft mouse model; type: in vivo; details: single 30 mg/kg p.o.
[4] = test system: U87-mIDH1 (R132H) cells; assay: Cellular 2-HG production assay; type: cell-based, human
[5] = PK/PD in U87 R132H mIDH1 xenograft mouse model; type: in vivo; details: female, athymic nude (nu/nu NCr), mouse, in vivo, po, 30 mg/kg
[6] = target: WT IDH1 (Homo sapiens, UniProt O75874); assay: IDH1-WT selectivity assay; type: biochemical
Chain of WT IDH1 (O75874 whole entry): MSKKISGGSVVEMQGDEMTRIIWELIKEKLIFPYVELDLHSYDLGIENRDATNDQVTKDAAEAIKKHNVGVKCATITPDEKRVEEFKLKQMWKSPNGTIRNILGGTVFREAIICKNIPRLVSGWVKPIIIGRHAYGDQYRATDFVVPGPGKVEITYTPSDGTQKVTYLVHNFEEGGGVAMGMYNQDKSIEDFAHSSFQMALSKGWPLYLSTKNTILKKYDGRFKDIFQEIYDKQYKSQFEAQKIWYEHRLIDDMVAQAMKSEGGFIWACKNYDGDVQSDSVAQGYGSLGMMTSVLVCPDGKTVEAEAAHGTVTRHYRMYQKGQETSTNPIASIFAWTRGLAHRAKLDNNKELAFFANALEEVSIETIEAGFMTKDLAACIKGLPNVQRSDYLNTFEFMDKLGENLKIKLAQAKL

[7] = Kinetic solubility assay; type: physicochemical; details: phosphate buffer, pH 7.4
[8] = target: IDH1 R132H (Homo sapiens, UniProt O75874, R132H); assay: diaphorase/resazurin-coupled mIDH1 R132H enzyme assay; type: biochemical; details: mIDH1 R132H, relative to 70
Chain of IDH1 R132H (O75874 whole entry R132H): as the sequence (O75874 whole entry) above, with R132H counted along it

[9] = Parallel artificial membrane permeability assay; type: in vitro ADME; details: PAMPA, pH 7.4, PAMPA (10^−6 cm/s)
[10] = Single time point rat liver microsome stability assay; type: in vitro ADME; details: rat liver microsomes, pH 7.4

Question: For `CCc1ccc(Cl)cc1-n1c(C=C(C)C)c(C(=O)N2CCNCC2)cc(-c2nc(-c3ccc(Cl)cc3)cs2)c1=O` (single isomer, unassigned) [(+)-119], which “fold more potent than 119 in HEK293 engagement assay” value [1] is on record?
Answer: 13 fold

Question: What about the “brain AUC” value ([2]; CD1 mice, single 30 mg/kg oral dose) of the same compound?
Answer: 6996 ng·h/g

Question: And the Kp ([2]; male, CD1, mouse, brain/plasma, po, 30 mg/kg)?
Answer: 0.28

Question: What about the Cmax ([2]; male, CD1, mouse, plasma, po, 30 mg/kg) of the same compound?
Answer: ~3.34 µM

Question: What about the “average concentration in tumor at 48 h” value ([3]; 48 h, 30 mg/kg) of the same compound?
Answer: 7 µM

Question: And the “reduction in tumor 2-HG compared to AG-120” value ([3]; from the 16 h time point onwards)?
Answer: greater reduction in tumor 2-HG

Question: What about the “2-HG levels lowered by (%)” value ([4]; 100 nM, U87-mIDH1 (R132H) cells, 48 h) of the same compound?
Answer: more than 94%

Question: And the IC50 ([4]; Homo sapiens, read-out: potency at reducing 2-HG in the cellular assay)?
Answer: < 0.7 nM

Question: What about the “fold more potent than 119 in U87 2-HG assay” value ([4]; relative to 119) of the same compound?
Answer: 30 fold

Question: Which results are given for `N#Cc1ccnc(N2C(=O)CC[C@H]2C(=O)N(c2cncc(F)c2)[C@H](C(=O)NC2CC(F)(F)C2)c2ccccc2Cl)c1` [AG-120]?
Answer: concentration at 24 h [5]: 1600 nM; concentration at 36 h [5]: 1400 nM; concentration at 48 h [5]: 770 nM

Question: With `COc1ccc(OC)c(-n2c3c(cc(-c4nc(-c5ccc(Cl)cc5)cs4)c2=O)C(=O)CC(C)(C)C3)c1` [Compound 1, 3-(4-(4-Chlorophenyl)thiazol-2-yl)-1-(2,5-dimethoxyphenyl)-7,7-dimethyl-7,8-dihydroquinoline-2,5(1H,6H)-dione] as the compound, how does the “off-target activity against WT IDH1” value [6] read?
Answer: no readout interference and off-target activity against WT IDH1

Question: With `CCc1cccc(CC)c1-n1c(C)c(C(=O)NC)cc(-c2nc(-c3ccc(Cl)cc3)cs2)c1=O` [Compound 70, 5-(4-(4-Chlorophenyl)thiazol-2-yl)-1-(2,6-diethylphenyl)-N,2-dimethyl-6-oxo-1,6-dihydropyridine-3-carboxamide] as the compound, how does the solubility kinetic at 6 h [7] read?
Answer: < 1 µM

Question: Which solubility kinetic at 6 h [7] does the source give for `CCc1cccc(CC)c1-n1c(C)c(C(=O)N2CCNCC2)cc(-c2nc(-c3ccc(Cl)cc3)cs2)c1=O` [Compound 87, 3-(4-(4-Chlorophenyl)thiazol-2-yl)-1-(2,6-diethylphenyl)-6-methyl-5-(piperazine-1-carbonyl)pyridin-2(1H)-one] here?
Answer: 6.7 µM (≈ 3.67 µg/mL)

Question: What about the “fold improvement in potency compared to analog 70” value [8] of the same compound?
Answer: 7 fold

Question: Which Papp at 30 min, 0.05 mM [9] does the source give for `CCc1cccc(CC)c1-n1c(C=C(C)C)c(C(=O)N2CCNC(C)C2)cc(-c2nc(-c3ccc(Cl)cc3)cs2)c1=O` (stereo not shown) [Compound 99, 3-(4-(4-Chlorophenyl)thiazol-2-yl)-1-(2,6-diethylphenyl)-5-(3-methylpiperazine-1-carbonyl)-6-(2-methylprop-1-en-1-yl)pyridin-2(1H)-one] here?
Answer: 213 ×10⁻⁶ cm/s

Question: And the half-life at 1 μM [10]?
Answer: 25 min

Question: And the solubility at 6 h [7]?
Answer: < 1 µg/mL
